Experimental data as given in the supplement of paper PMC10307832.

Key:
Assay in all cases: relative viability (nuclei count vs DMSO), 5 days (fraction); higher = more cells survive
[1] = compound: CC1=CC=C(C=C1)C(=O)CN2C3=C(CCCC3)SC2=N [Pifithrin_alpha] + C[C@@H](Oc1cc(-c2cnn(C3CCNCC3)c2)cnc1N)c1c(Cl)ccc(F)c1Cl [Crizotinib] (partner 1 µM)
How it was run: (§1)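 Lung cancer cell lines in 1536-well plates were dosed by pin tool the day after seeding, either with one drug alone or with a fixed anchor-drug dose plus five library-drug doses (not always all listed) in √10 steps. After 5 days, cells were fixed and their nuclei stained in one step (final 0.05% Triton X-100, 1% formaldehyde, 1 ug/ml Hoechst), then counted on 4× images. Relative viability is the nuclei count in treated wells divided by that in vehicle wells. Values are medians of duplicate plates.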

[2] = compound: CC1=CC=C(C=C1)C(=O)CN2C3=C(CCCC3)SC2=N [Pifithrin_alpha] + COc1cccc2cc(-c3nc([C@H]4CC[C@H](C(=O)O)CC4)n4ncnc(N)c34)[nH]c12 [OSI-027] (partner 0.5 µM)
How it was run: as §1

Bemcentinib + Crizotinib = compound: Nc1nc(Nc2ccc3c(c2)CC[C@@H](N2CCCC2)CC3)nn1-c1cc2c(nn1)-c1ccccc1CCC2 [Bemcentinib] + C[C@@H](Oc1cc(-c2cnn(C3CCNCC3)c2)cnc1N)c1c(Cl)ccc(F)c1Cl [Crizotinib] (partner 1 µM)
How it was run: as §1

[3] = compound: CC1=CC=C(C=C1)C(=O)CN2C3=C(CCCC3)SC2=N [Pifithrin_alpha] + CS(=O)(=O)N1CCN(Cc2cc3nc(-c4cccc5[nH]ncc45)nc(N4CCOCC4)c3s2)CC1 [Pictilisib] (partner 1 µM)
How it was run: as §1

NCI-H650
relative viability ([1]; first compound 3.162 µM): 0.671
relative viability ([1]; first compound 10 µM): 0.659
relative viability ([1]; first compound 31.62 µM): 0.434
relative viability ([1]; first compound 100 µM): 0.743
relative viability ([2]; first compound 3.162 µM): 0.51
relative viability ([2]; first compound 10 µM): 0.582
relative viability ([2]; first compound 31.62 µM): 0.489
relative viability ([2]; first compound 100 µM): 0.427
relative viability (Bemcentinib + Crizotinib; first compound 0.04 µM): 0.721
relative viability (Bemcentinib + Crizotinib; first compound 0.1265 µM): 0.785
relative viability (Bemcentinib + Crizotinib; first compound 0.4 µM): 0.679
relative viability (Bemcentinib + Crizotinib; first compound 1.265 µM): 0.703
relative viability (Bemcentinib + Crizotinib; first compound 4 µM): 0.618
relative viability ([3]; first compound 3.162 µM): 0.91
relative viability ([3]; first compound 10 µM): 0.873
relative viability ([3]; first compound 31.62 µM): 0.58
relative viability ([3]; first compound 100 µM): 0.763
